Earlier results in patent publication EP1803441A1 (Teva Pharmaceutical Industries Ltd, priority 2005, dated 2007).

Columns and labels:
[1] = orally administered tablets
[2] = oral administration

CC(C)OC(=O)C(C)(C)Oc1ccc(C(=O)c2ccc(Cl)cc2)cc1 [fenofibrate, 2-[4-(4-chlorobenzoyl)phenoxy]-2-methyl-propanoic acid, 1-methylethyl ester]
increase of the extent of absorption when tablets are taken with food [1]: approximately 35%
part of a single dose excreted in the feces [2]: 25%
